According to patent US20240285652A1, “AMORPHOUS NANO-MOLECULAR AGGREGATE COMPOSED OF ORGANIC MATERIAL, INORGANIC MATERIAL, OR SALT THEREOF, AND METHOD FOR PREPARING SAME” (SCAI THERAPEUTICS CO., LTD., priority 2021, published 2024):

Experiment: Corneal permeation experiment in Ussing chamber
Format: in vitro ADME
Conditions: pig cornea, 37° C., after 18 hours
Experimental: The corneal permeation experiment was conducted with reference to the contents of “Lee et. al, “Modulating the Transport Characteristics of Bruch's Membrane With Steroidal Glycosides and its Relevance to Age-Related Macular Degeneration (AMD). Invest. Ophthalmol. Vis. Sci. 2015, 56, 8403, 2015,” which is an already published paper. […] Basically, the drug is put into the donor chamber of the Ussing chamber, the corneal part of the pig eye is collected in a circular shape of 8 mm in size, and other tissues attached to the cornea were removed, and then fixed in place of the membrane, and the solution permeating the membrane was received in the receiving chamber, and at this time, it was placed in a constant temperature chamber in which the temperature at which diffusion occurs was adjusted to 37° C., which is close to human body temperature, and stored. After a certain amount of time passed, the diffusion properties of each sample could be identified by measuring the concentration of the solution in each donor chamber and receiving chamber. For the concentration, UV/VIS spectrum (Evolution201 UV/Vis; Thermo) was used, and the concentration was measured using a peak height at 420 nm.

Drug in corneal tissue (μg, Mean ± SD): 65.7 ± 7.5 µg
Drug in receiver (μg, Mean ± SD): 8.8 ± 5.8 µg
Transport percentage* (%, Mean ± SD): 1.6 ± 1.1%
SMILES: CCN(CC)CCNC(=O)c1c(C)[nH]c(/C=C2\C(=O)Nc3ccc(F)cc32)c1C [Comparative Example 2, sunitinib-malate]
